Source: publication PMC7163368 (British Journal of Clinical Pharmacology, 2020)
Values joined by “and” are separate entries in the source; they are usually repeats but may differ in a detail not shown here. Equal entries are not always repeated.

Columns and labels:
DPP‐IV = conditions: oral administration of 400 mg; cited from earlier work
[1] = Plasma pharmacokinetics of parenterally administered dutogliptin; type: in vivo, human; conditions: for AUC / AUC(0-inf) / Tmax / k el / half-life / bioavailability: human, plasma

Peak plasma concentration ([1]; 30 mg i.v. (n = 5), day 0, mean (SD)): 2352 (211) ng/mL
Peak plasma concentration ([1]; 30 mg s.c. (n = 5), day 0, mean (SD)): 1232 (97) ng/mL
Peak plasma concentration ([1]; 60 mg s.c. (n = 10), day 0, mean (SD)): 2757 (517) ng/mL
Peak plasma concentration ([1]; 90 mg s.c. (n = 10), day 0, mean (SD)): 3641 (672) ng/mL
Peak plasma concentration ([1]; 120 mg s.c. (n = 10), day 0, mean (SD)): 5093 ng/mL and 5093 (873) ng/mL
Increase in maximal plasma levels ([1]; 120 mg s.c. compared to 500 mg orally administered dutogliptin): > 6 fold
Maximum plasma concentration ([1]; 120 mg s.c. multiple dose, day 6 (n = 5), SD: 544): 6024 ng/mL
AUC ([1]; iv, 30 mg): 4080 ng·h/mL
AUC(0-inf) ([1]; iv, 30 mg): 4090 ng·h/mL
Tmax ([1]; iv, 30 mg): 0.08 h
k el ([1]; iv, 30 mg): 5.56e-05 s⁻¹
half-life ([1]; iv, 30 mg, T1/2, 30 mg i.v. (n = 5), day 0, mean (SD)): 3.68 h
bioavailability ([1]; sc): ~100%
AUC ([1]; sc, 30 mg): 4050 ng·h/mL
AUC(0-inf) ([1]; sc, 30 mg): 4060 ng·h/mL
Tmax ([1]; sc, 30 mg): 0.7 h
bioavailability ([1]; sc, 30 mg): 99%
k el ([1]; sc, 30 mg): 5.83e-05 s⁻¹
half-life ([1]; sc, 30 mg, T1/2, 30 mg s.c. (n = 5), day 0, mean (SD)): 3.37 h
AUC ([1]; sc, 60 mg): 9060 ng·h/mL
AUC(0-inf) ([1]; sc, 60 mg): 9110 ng·h/mL
Tmax ([1]; sc, 60 mg): 0.85 h
bioavailability ([1]; sc, 60 mg): 109%
k el ([1]; sc, 60 mg): 5.56e-05 s⁻¹
half-life ([1]; sc, 60 mg, T1/2, 60 mg s.c. (n = 10), day 0, mean (SD)): 3.58 h
AUC ([1]; sc, 90 mg): 12200 ng·h/mL
AUC(0-inf) ([1]; sc, 90 mg): 12200 ng·h/mL
Tmax ([1]; sc, 90 mg): 0.85 h
bioavailability ([1]; sc, 90 mg): 96%
k el ([1]; sc, 90 mg): 5.56e-05 s⁻¹
half-life ([1]; sc, 90 mg, T1/2, 90 mg s.c. (n = 10), day 0, mean (SD)): 3.64 h
AUC ([1]; sc, 120 mg): 17200 ng·h/mL
AUC(0-inf) ([1]; sc, 120 mg): 17300 ng·h/mL
Tmax ([1]; sc, 120 mg): 0.9 h
bioavailability ([1]; sc, 120 mg): 95%
k el ([1]; sc, 120 mg): 5.83e-05 s⁻¹
half-life ([1]; sc, 120 mg, T1/2, 120 mg s.c. (n = 10), day 0, mean (SD)): 3.32 h
half-life ([1]; sc, Half‐life, subcutaneous injection, pooled, SD: 0.46): 3.49 h
SMILES: O=C(CN[C@@H]1CCNC1)N1CCC[C@H]1B(O)O [dutogliptin]
Inhibition of DPP‐IV activity (DPP‐IV): approximately 85%
Accumulation of the study drug ([1]; multiple injections at daily intervals): did not lead to the accumulation of the study drug
